Measurements: publication PMC7507806 (ACS Pharmacology & Translational Science, 2020)
Like-named read-outs stand apart in the source and are kept apart here. Non-standard residues stand in square brackets, D forms with d. Residues, ends and D or L forms follow the SMILES beside them. *: point of attachment. Nva = CCC[C@H](N)C(=O)O; Cbz = O=C(OCc1ccccc1)*

Assays:
[1] = molecular target: T1, SARS-CoV-2 3CL^pro (Severe acute respiratory syndrome coronavirus 2, UniProt P0DTD1); format: biochemical; conditions: for IC50: read-out: 3CL^pro inhibition IC50
[2] = test system: SARS-CoV-2 (USA_WA1/2020); assay: SARS-CoV-2 cytopathic effect; format: cell-based; conditions: Vero E6 cells; for EC50: read-out: SARS-CoV-2 CPE EC50
[3] = test system: Vero E6 cells; conditions: for CC50: read-out: Vero E6 cytotoxicity CC50
[4] = test system: SARS-CoV-2 virus; conditions: cited from earlier work
[5] = molecular target: T1, SARS-CoV-2 3CL^pro; conditions: cited from earlier work
[6] = test system: SARS-CoV-2; conditions: cited from earlier work
[7] = Table 2, compounds with partial fluorescence quenching effect

Compound | 3CL^pro inhibition max resp ([1]; Table 1 compounds) [%] | SARS-CoV-2 CPE efficacy ([2]; 72 h, Table 1 compounds) [%] | EC50 ([2]; 72 h, Table 1 compounds) [µM] | Vero E6 cytotoxicity efficacy ([3]; no virus, Table 1 compounds) [%] | CC50 ([3]; no virus, Table 1 compounds) [µM] | also measured
O=C(O)c1ccc(N2C(=O)/C(=C\c3ccc(-c4ccc([N+](=O)[O-])cc4)o3)C=C2c2ccccc2)cc1 [4E1RCat] | 76.33 | 0 | > 20 | 0 | > 20 | IC50 [1]: 18.3 µM
CC#C[C@@H](CC(=O)O)c1ccc(OCc2cccc(-c3ccc(C(F)(F)F)cc3)c2)cc1 [AMG-837] | – | – | – | – | – | 3CL^pro inhibition max resp [1, 7]: 65.79%; SARS-CoV-2 CPE efficacy ([2]; Table 2 quenching compounds): 106.31%; Vero E6 cytotoxicity efficacy ([3]; Table 2 quenching compounds): 20.2%
CC(C)(C)NC(=O)N[C@H](C(=O)N1C[C@H]2[C@@H]([C@H]1C(=O)NC(CC1CCC1)C(=O)C(N)=O)C2(C)C)C(C)(C)C (some centres unmarked) [Boceprevir] | – | – | – | – | – | activity in CPE and viral yield reduction assays [4]: active in both CPE and viral yield reduction assays; EC50 ([4]; read-out: EC50 against SARS-CoV-2 virus infection in the CPE assay): 1.9 µM
CC1(C)OC2=C(C(=O)c3ccccc3C2=O)[C@H](NCc2ccccc2)[C@@H]1O [CAY-10581] | – | 0 | > 20 | 0 | > 20 | –
O=C1C(Cl)=C(NCCN2CCOCC2)C(=O)c2ncccc21 [DA-3003–1] | – | 53.77 | 4.47 | 112 | 7.74 | activity in CPE assay [2]: exhibited CPE activity
O=C(O)Cc1cccc(OCCCN(Cc2cccc(C(F)(F)F)c2Cl)CC(c2ccccc2)c2ccccc2)c1 [GSK-3965] | – | – | – | – | – | 3CL^pro inhibition max resp [1]: 108.24%; IC50 [1]: 21.5 µM; SARS-CoV-2 CPE efficacy ([2]; Table 2 quenching compounds): 22.51%; Vero E6 cytotoxicity efficacy ([3]; Table 2 quenching compounds): 82.34%; CC50 ([3]; Table 2 quenching compounds): 14.1 µM
O=C1Nc2ccc(I)cc2/C1=C/c1cc(Br)c(O)c(Br)c1 [GW5074] | – | – | – | – | – | 3CL^pro inhibition max resp [1, 7]: 63.16%; Vero E6 cytotoxicity efficacy ([3]; Table 2 quenching compounds): 20.1%; CC50 ([3]; Table 2 quenching compounds): 11.2 µM
Cc1cc(SCc2sc(-c3ccc(C(F)(F)F)c(F)c3)nc2C)ccc1OCC(=O)O [GW-0742] | 126.23 | 0 | > 20 | 0 | > 20 | –
Cc1cccc(C)c1OCC(=O)N[C@@H](Cc1ccccc1)[C@@H](O)C[C@H](Cc1ccccc1)NC(=O)[C@H](C(C)C)N1CCCNC1=O [Lopinavir] | – | – | – | – | – | inhibition of 3CL^pro [5]: did not show inhibition
CCC[C@@H](C=O)NC(=O)[C@H](CC(C)C)NC(=O)[C@H](CC(C)C)NC(=O)OCc1ccccc1 [MG-115] (Cbz-Leu-Leu-[Nva]-aldehyde) | 74.89 | – | – | 115.48 | 1.13 | –
CCCCCCCc1ccc(CCc2cccc(O)c2C(=O)O)cc1 [MG-149] | – | – | – | – | – | Vero E6 cytotoxicity efficacy ([3]; Table 2 quenching compounds): 23.42%
COc1ccc2cc(-c3cc(-c4cc(Cl)cc(Cl)c4)nn3[C@@H](C)c3ccc(C(=O)NCCC(=O)O)cc3)ccc2c1 [MK 0893] | 95.77 | 23.89 | – | 80.04 | – | –
CC(C)c1ccc2c(c1)c(SC(C)(C)C)c(CC(C)(C)C(=O)O)n2Cc1ccc(Cl)cc1 [MK-886] | – | – | – | – | – | 3CL^pro inhibition max resp [1, 7]: 109.11%; Vero E6 cytotoxicity efficacy ([3]; Table 2 quenching compounds): 40.83%; CC50 ([3]; Table 2 quenching compounds): 14.1 µM
Cc1cc(C(=O)N[C@@H](C)C(=O)N[C@H](C(=O)N[C@@H](CC(C)C)C(=O)NC(/C=C/C(=O)OCc2ccccc2)C[C@@H]2CCNC2=O)C(C)C)no1 (some centres unmarked) [N3] | – | – | – | – | – | antiviral activity in viral RNA quantification and plaque-reduction assays [6]: strongest antiviral activity
O=C1C(SCCO)=C(SCCO)C(=O)c2ccccc21 [NSC 95397] | 98.7 | 0 | > 20 | 111.33 | 14.1 | –
O=C(Nc1cc(C(F)(F)F)cc(C(F)(F)F)c1)c1cnc(Cl)nc1C(F)(F)F [SP 100030] | – | 0 | > 20 | 0 | > 20 | –
Cc1[nH]c(/C=C2\C(=O)Nc3cc(-c4ccccc4)ccc32)c(C)c1CCC(=O)O [SU 16f] | – | 0 | > 20 | 23.57 | 7.94 | –
Brc1c(Br)c(Br)c2n[nH]nc2c1Br [TBB] | 77.96 | – | – | 80.93 | 8.91 | –

Compound | 3CL^pro inhibition max resp ([1]; Table 1 compounds) [%] | SARS-CoV-2 CPE efficacy ([2]; 72 h, Table 1 compounds) [%] | EC50 ([2]; 72 h, Table 1 compounds) [µM] | Vero E6 cytotoxicity efficacy ([3]; no virus, Table 1 compounds) [%] | CC50 ([3]; no virus, Table 1 compounds) [µM] | also measured
Cc1cc(O[C@@H](CCC(F)(F)F)c2ccc(C(=O)NCCC(=O)O)cc2)cc(C)c1-c1ccc(C(C)(C)C)cc1 [adomeglivant] | – | – | – | – | – | SARS-CoV-2 CPE efficacy ([2]; Table 2 quenching compounds): 49.2%; Vero E6 cytotoxicity efficacy ([3]; Table 2 quenching compounds): 36.97%
CCCCCCCCCCCCCCCCC(C(=O)O)C(O)(CC(=O)O)C(=O)O (centres unmarked) [agaric acid] | 110.16 | 0 | > 20 | 0 | > 20 | –
CCCCCCCCCCCCCCCc1cccc(O)c1C(=O)O [anacardic acid] | – | – | – | – | – | 3CL^pro inhibition max resp [1, 7]: 105.9%; SARS-CoV-2 CPE efficacy ([2]; Table 2 quenching compounds): 89.62%; EC50 ([2]; Table 2 quenching compounds): 3.98 µM; Vero E6 cytotoxicity efficacy ([3]; Table 2 quenching compounds): 72.92%
CC1(C)CCC2=C(O1)c1ccccc1C(=O)C2=O [beta-lapachone] | 60.88 | 0 | – | 15.06 | – | –
CSCC[C@@H](C=O)NC(=O)[C@H](CC(C)C)NC(=O)[C@H](CC(C)C)NC(C)=O [calpain inhibitor II] (Ac-Leu-Leu-Met-aldehyde) | – | – | – | – | – | activity in CPE and viral yield reduction assays [4]: active in both CPE and viral yield reduction assays
CCCC(NC(=O)C(CC(C)C)NC(=O)OCc1ccccc1)C(=O)C(=O)NCc1ccccn1 (centres unmarked) [calpain inhibitor XII] | – | – | – | – | – | activity in CPE and viral yield reduction assays [4]: active in both CPE and viral yield reduction assays
O=c1c2ccccc2[se]n1-c1ccccc1 [ebselen] | – | – | – | – | – | antiviral activity in viral RNA quantification and plaque-reduction assays [6]: strongest antiviral activity
CC1=NN(c2ccc(C)c(C)c2)C(=O)/C1=N\Nc1cccc(-c2cccc(C(=O)O)c2)c1O [eltrombopag olamine] | – | – | – | – | – | SARS-CoV-2 CPE efficacy ([2]; Table 2 quenching compounds): 74.39%; Vero E6 cytotoxicity efficacy ([3]; Table 2 quenching compounds): 68.67%
O=C1c2ccccc2-[n+]2ccc3c([nH]c4ccccc43)c21 [fascaplysin] | 63.44 | 0 | – | 99.28 | – | –
Oc1c(Cl)cc(Cl)c(Cl)c1Cc1c(O)c(Cl)cc(Cl)c1Cl [hexachlorophene] | – | – | – | – | – | Vero E6 cytotoxicity efficacy ([3]; Table 2 quenching compounds): 63.02%
C/C1=C2/[N-][C@H]([C@H](CC(N)=O)[C@@]2(C)CCC(=O)NC[C@@H](C)OP(=O)([O-])O[C@H]2[C@@H](O)[C@@H](n3cnc4cc(C)c(C)cc43)O[C@@H]2CO)[C@]2(C)N=C(/C(C)=C3N=C(/C=C4N=C1[C@@H](CCC(N)=O)C\4(C)C)[C@@H](CCC(N)=O)[C@]\3(C)CC(N)=O)[C@@H](CCC(N)=O)[C@]2(C)CC(N)=O.[Co+3].[OH-] [hydroxocobalamin] | 89.56 | 0 | > 20 | 0 | > 20 | activity in CPE assay [2]: neither effective in CPE assay; cytotoxicity to Vero E6 cells [3]: nor cytotoxic to Vero E6 cells
CN[C@H](CC(C)C)C(=O)N[C@H]1C(=O)N[C@@H](CC(N)=O)C(=O)N[C@H]2C(=O)N[C@H]3C(=O)N[C@H](C(=O)N[C@H](C(=O)O)c4cc(O)cc(O)c4-c4cc3ccc4O)[C@H](O[C@H]3C[C@](C)(N)[C@@H](O)[C@H](C)O3)c3ccc(c(Cl)c3)Oc3cc2cc(c3O[C@@H]2O[C@H](CO)[C@@H](O)[C@H](O)[C@H]2O[C@H]2C[C@](C)(NCc3ccc(-c4ccc(Cl)cc4)cc3)[C@@H](O)[C@H](C)O2)Oc2ccc(cc2Cl)[C@H]1O.O=P(O)(O)O.O=P(O)(O)O [oritavancin (diphosphate)] | 93.29 | 0 | > 20 | 23.51 | 14.1 | –
O.O=C(OC[C@H]1O[C@@H](OC(=O)c2cc(O)c(O)c(O)c2)[C@H](OC(=O)c2cc(O)c(O)c(O)c2)[C@@H](OC(=O)c2cc(O)c(O)c(O)c2)[C@@H]1OC(=O)c1cc(O)c(O)c(O)c1)c1cc(O)c(O)c(O)c1 [penta-O-galloyl-β-D-glucose hydrate] | 109.94 | – | – | 80.28 | 11.2 | –
CC(C)c1nc(CN(C)C(=O)N[C@H](C(=O)N[C@@H](Cc2ccccc2)C[C@H](O)[C@H](Cc2ccccc2)NC(=O)OCc2cncs2)C(C)C)cs1 [ritonavir] | – | – | – | – | – | inhibition of 3CL^pro [5]: did not show inhibition
COCCn1c2c([n+](Cc3cnccn3)c1C)C(=O)c1ccccc1C2=O [sepantronium bromide] | 61.79 | 0 | – | 20.12 | – | –
Cc1ccc(C(=O)Nc2ccc(S(=O)(=O)O)c3cc(S(=O)(=O)O)cc(S(=O)(=O)O)c23)cc1NC(=O)c1cccc(NC(=O)Nc2cccc(C(=O)Nc3cc(C(=O)Nc4ccc(S(=O)(=O)O)c5cc(S(=O)(=O)O)cc(S(=O)(=O)O)c45)ccc3C)c2)c1 [suramin sodium] | 99.49 | 0 | – | 0 | – | activity in CPE assay [2]: neither effective in CPE assay; cytotoxicity to Vero E6 cells ([3]; African green monkey): nor cytotoxic to Vero E6 cells
vitamin B12 | – | 0 | > 20 | 0 | > 20 | 3CL^pro inhibition max resp [1]: 71.06%
